The results in this text go back to US4851414A, “Anti-dementia agent” (Kyowa Hakko Kagyo Co., Ltd., priority 1987, dated 1989).

Bounds are passed on as bounds.

A short description of data set [1]: Acute Toxicity, rats. The settings on record: in vivo; oral, rat (male). The protocol:
(§1) Acute toxicity test was carried out by orally administering Compound (I) used in the present invention to mice (male) and rats (male).

A short description of data set [2]: Acute Toxicity, mice. The settings on record: in vivo; oral, mouse (male). The protocol: as §1
A short description of data set [3]: Activity on Electroconvulsive Shock-induced Amnesia (step-through passive avoidance, light-and-dark box). Type of data set: in vivo, mouse (dd strain, male). The settings on record: for reaction latent time: Tables 2-2, 2-3 and 2-4, oral. The protocol: The antiamnestic activity was measured by using the light-and-dark box method. Symbols of the test compounds correspond to said compounds (Table 1).
As the test animals, 14 to 15 dd strain male mice (body weight: 23-28 g) were used for each group. As the experimental device, a step-through type passive avoidance training box composed of a light room and a dark room (light room: 130×90×90 mm; dark room 180×90×90 mm) was used.
In the acquisition trial where learning takes place, mice put in the light room move to the dark room. Each time the mice entered the dark room, electric stimulation of 0.25 mA was given to four limbs of each mouse for 2 seconds from grids on the floor.
Amnesia-inducing treatment was performed by electroconvulsive shock (2,000 V, 25 mA, 0.2 seconds) immediately after completion of the acquisition trial. After 24 hours, the test trial was conducted to measure the length of time before the mice entered the dark room. This time period, termed the reaction latent time, was recorded. A reaction latent time longer than 600 seconds was recorded as 600 seconds.
A test compound was suspended in 0.3% sodium carboxymethyl cellulose (hereinafter referred to as "CMC"). That suspension and a control of 0.3% CMC without any test compound were respectively administered to the mice 60 minutes prior to each test trial.
The effect was evaluated by Student-t test to determine whether there was a significant difference in reaction latent time between the amnesia control group and the group administered with the test compound in the passive avoidance test trial.

The nature of data set [4]: Activity on Amnesia due to Damage of Basal Forebrain (kainic acid lesion, passive avoidance). Type of data set: in vivo, rat (Wistar strain, male). Conditions: for Number of Rats that Reached Standard Point / Number of Rats Tested: standard point 600 seconds. The protocol: As the test animals, 13 to 39 Wistar strain male rats (body weight: 250-300 g) were used for each group. Amnesia-inducing treatment was effected by damaging the basal forebrain through injection of 0.2 μg/μl kainic acid at the basal forebrain from both sides under anesthesia with pentobarbital-Na.
After the recovery period of about 10 days following the operation, the trial for acquiring learning (training) was performed in a similar manner using the same experimental device as in Experiment 2. After 24 hours, the test trial was carried out.
Measurement of the latent time was carried out in a similar manner as in Experiment 1. Test Compound B and idebenone were suspended in 0.3% CMC, and the suspension was administered twice 60 minutes prior to the training and 60 minutes prior to the test.
Alternatively, the suspension was administered for 9 consecutive days after the recovery period. In this case, Compound B was orally administered and idebenone was intraperiotoneally administered; and the training was conducted on day 8 and the test trial was conducted on day 9. […]

Data set [5] in a line: Activity on Scopolamine-induced Amnesia (step-through passive avoidance). Type of data set: in vivo, rat (Wistar strain, male). The settings on record: for Number of Rats that Reached Standard Point / Number of Rats Tested: standard point 600 seconds. An excerpt: As the experimental device, a step-through type passive avoidance training box composed of a light room and a dark room (light room: 400×400×400 mm; dark room 200×150×200 mm) was used. In the acquisition trial where learning is made, rats put in the light room move to the dark room. Each time the rats entered the dark room, electric stimulation of 2 mA was given to four limbs of each rat for 3 seconds from grids on the floor.

The mark [6] stands for this setting: 2.5 mg/kg, administered for 9 days, oral.
[7] abbreviates: 10 mg/kg, administered for 9 days, oral.
[8] abbreviates: idebenone intraperitoneal, imipramine oral.
[9] abbreviates: 2.5 mg/kg, administered for 9 days, intraperitoneal.
Setting [10] is: 10 mg/kg, administered for 9 days, intraperitoneal.

On to `CCCCCCCCCCCCCC(=O)Nc1ccc(Cc2ccccn2)c([N+](=O)[O-])c1` [Compound G, α-(p-Myristylamino-o-nitrobenzyl)pyridine], for which the values for the LD50 in data set [1] and in data set [2] were more than 100 mg/kg and more than 1000 mg/kg, respectively. In addition, in data set [3], the “reaction latent time” value is “prolonged”.
As to `CCCCCCCC(=O)Nc1ccc(Cc2ccccn2)c([N+](=O)[O-])c1` [Compound E, α-(p-Octanoylamino-o-nitrobenzyl)pyridine], the LD50 in data set [1] was more than 100 mg/kg; in data set [2], more than 1000 mg/kg.
Turning to `CCCCCCCCCC(=O)Nc1ccc(Cc2ccccn2)c([N+](=O)[O-])c1` [Compound F, α-(p-Decanoylamino-o-nitrobenzyl)pyridine], the figures for the LD50 in data set [1] and in data set [2] were more than 100 mg/kg and more than 1000 mg/kg, respectively.
`CCCCC(=O)Nc1ccc(Cc2ccccn2)c([N+](=O)[O-])c1` [Compound C, α-(p-Valerylamino-o-nitrobenzyl)pyridine] showed an LD50 in data set [2] of more than 300 mg/kg. For the same compound, the “reaction latent time” value in data set [3] is on record as “prolonged”.
For `CNCCCN1c2ccccc2CCc2ccccc21` [Desipramine, desipramine, reference compound], in data set [3] (Table 2-6, oral), the “ataxis in motor coordination, order of intensity” value (“ataxis in motor coordination” below) is on record as “amitriptyline>desipramine>imipramine”.
As to `CCCC(=O)Nc1ccc(Cc2ccccn2)c([N+](=O)[O-])c1` [Compound B, α-(p-Butyrylamino-o-nitrobenzyl)pyridine], the LD50 in data set [1] was more than 850 mg/kg; in data set [2], 1530 mg/kg. Moreover, the “Test Trial Mean Reaction Latent Time” value was determined as 243.2 ± 73.7 s in data set [4] (setting [6]); 121.8 ± 36.5 s in data set [4] (2.5 mg/kg, administered twice); 215.5 ± 60.0 s in data set [4] (5 mg/kg, administered twice); 259.0 ± 78.5 s in data set [4] (setting [7]); 191.2 ± 57.7 s in data set [4] (10 mg/kg, administered twice); 209.2 ± 60.2 s in data set [4] (20 mg/kg, administered twice). In addition, the “Test Trial Mean Reaction Latent Time” value in data set [4] (40 mg/kg, administered twice) stood at 163.0 ± 51.5 s; in data set [5] (2.5 mg/kg, oral), 94.3 ± 30.3 s; in data set [5] (5 mg/kg, oral), 148.9 ± 54.3 s; in data set [5] (10 mg/kg, oral) it was 201.2 ± 55.5 s; in data set [5] (20 mg/kg, oral), 172.4 ± 52.6 s; in data set [5] (40 mg/kg, oral), 171.2 ± 52.5 s. For the same compound, the “Number of Rats that Reached Standard Point / Number of Rats Tested” value is listed as 4/13 in data set [4] (setting [6]); 1/19 in data set [4] (2.5 mg/kg, administered twice); 5/19 in data set [4] (5 mg/kg, administered twice); 5/13 in data set [4] (setting [7]); 3/18 in data set [4] (10 mg/kg, administered twice); 4/18 in data set [4] (20 mg/kg, administered twice). The “Number of Rats that Reached Standard Point / Number of Rats Tested” value is 2/18 in data set [4] (40 mg/kg, administered twice); 1/20 in data set [5] (2.5 mg/kg, oral); 3/17 in data set [5] (5 mg/kg, oral); 4/20 in data set [5] (10 mg/kg, oral); 2/17 in data set [5] (20 mg/kg, oral); 4/20 in data set [5] (40 mg/kg, oral). Also, the “improving activity” value in data set [4] (9 consecutive days, 10 mg/kg, oral) is “significant (P<0.05) improving activity”. For the same compound, the “activity of alleviating learning disturbance” value in data set [4] (administered twice, 2.5 mg/kg or more) was “showed an activity of alleviating learning disturbance”. The “improving activity in the learning-disturbed animal model” value in data set [4] (rat, in vivo) is “apparent improving activity”. Further, the “antiamnestic activity” value in data set [5] (oral, dose of 5 to 40 mg/kg) is on record as “showed an antiamnestic activity”. Also, the “reaction latent time compared with the amnestic control group” value in data set [3] (doses of 10, 40, 80 and 160 mg/kg, oral) is reported as “significantly prolonged”.
For `CN(C)CCC=C1c2ccccc2CCc2ccccc21` [Amitriptyline, amitriptyline, reference compound], the “ataxis in motor coordination” value in data set [3] (mouse, in vivo, po) was “amitriptyline>desipramine>imipramine”.
Take `CCCCCC(=O)Nc1ccc(Cc2ccccn2)c([N+](=O)[O-])c1` [Compound D, α-(p-Hexanoylamino-o-nitrobenzyl)pyridine]: the LD50 in data set [1] is more than 100 mg/kg; in data set [2], more than 1000 mg/kg. The “reaction latent time” value in data set [3] is recorded as “prolonged”.
Take `CC(=O)Nc1ccc(Cc2ccccn2)c([N+](=O)[O-])c1` [Compound A, α-(p-Acetylamino-o-nitrobenzyl)pyridine]: the LD50 in data set [1] was more than 200 mg/kg; in data set [2], 660 mg/kg. Also, the “reaction latent time” value in data set [3] is given as “prolonged”.
Consider `CN(C)CCCN1c2ccccc2CCc2ccccc21` [Imipramine, imipramine], for which, in data set [5] (20 mg/kg, oral), the “Test Trial Mean Reaction Latent Time” value turned out to be 110.4 ± 44.3 s and the “Number of Rats that Reached Standard Point / Number of Rats Tested” value was 1/13. For the same compound, in data set [5] (40 mg/kg, oral), the “Test Trial Mean Reaction Latent Time” value is 186.6 ± 54.0 s and the “Number of Rats that Reached Standard Point / Number of Rats Tested” value is 1/13. In addition, in data set [5] (setting [8]), the “antiamnestic activity” value is given as “showed no antiamnestic activity”. Besides, the “ataxis in motor coordination” value in data set [3] (Table 2-6, oral) was “amitriptyline>desipramine>imipramine”.
Take `COC1=C(OC)C(=O)C(CCCCCCCCCCO)=C(C)C1=O` [Idebenone, idebenone, reference compound]: the “Test Trial Mean Reaction Latent Time” value was 382.8 ± 80.2 s in data set [4] (setting [9]); 178.2 ± 68.2 s in data set [4] (setting [10]); 52.0 ± 22.1 s in data set [4] (10 mg/kg, administered twice); 15.2 ± 3.4 s in data set [4] (20 mg/kg, administered twice); 27.7 ± 8.9 s in data set [4] (40 mg/kg, administered twice); 58.4 ± 19.7 s in data set [5] (2.5 mg/kg, intraperitoneal). For the same compound, the “Test Trial Mean Reaction Latent Time” value came out at 110.6 ± 30.2 s in data set [5] (5 mg/kg, intraperitoneal) and 148.8 ± 60.2 s in data set [5] (10 mg/kg, intraperitoneal). The “Number of Rats that Reached Standard Point / Number of Rats Tested” value is recorded as 7/13 in data set [4] (setting [9]); 3/13 in data set [4] (setting [10]); 0/14 in data set [4] (10 mg/kg, administered twice); 0/14 in data set [4] (20 mg/kg, administered twice); 0/14 in data set [4] (40 mg/kg, administered twice); 0/10 in data set [5] (2.5 mg/kg, intraperitoneal). The “Number of Rats that Reached Standard Point / Number of Rats Tested” value in data set [5] (5 mg/kg, intraperitoneal) is recorded as 0/10; in data set [5] (10 mg/kg, intraperitoneal), 0/10. Also, the “improving effect” value is on record as “apparent improving effect” in data set [4] (9 consecutive days, 2.5 mg/kg, intraperitoneal) and “showed no improving effect” in data set [4] (administered twice, 10 to 40 mg/kg). Also, the “antiamnestic activity” value in data set [5] (setting [8]) is “showed no antiamnestic activity”.

The LD50 is the dose at which mortality reaches 50%. High values mean a less toxic substance, low ones a more toxic substance.
